Patent US20260355225A1 (priority 2022, published 2026)
pIC50: −log10 of the molar value. Converted amounts (≈) assume the structure as drawn. “And” between values parts separate entries of the source, which are not always exact repeats. Equal values may be shown once.

Key:
HIV-1 NL4-3 = test: Antiviral assay against HIV-1 NL4-3, percentage of infected cells by immunofluorescence (Example 2); conditions: Human immunodeficiency virus 1, NL43, 48 h
[1] = as above; conditions: human, hela tzmbl cells, Viability Percentages, D-xylose 104.000 mM, replicate wells
[2] = according to Sigma cat #1.08689; cited from earlier work
[3] = D-xylose absorption tests; cited from earlier work
[4] = Cytotoxicity of D-xylose alone or + insulin, MTT assay, absence of viral infection (Example 2); conditions: human, hela tzmbl cells
HeLa TZMBL cells = test: as above; conditions: for Cytotoxicity percentage / Viability percentage: 2880 min
cells = conditions: cited from earlier work
glycosaminoglycans = conditions: fibroblasts, keranocytes, CHO, BHK, BAE and other cells; cited from earlier work
SARS-CoV-2 = test: Antiviral assay, inhibition of virus-induced cytopathic effect (CPE) of SARS-CoV-2 by MTT assay (Example 1); conditions: for Viability percentage: 4320 min
[5] = Cytotoxicity of D-xylose, MTT assay, absence of viral infection (Example 1); type: cell-based; conditions: monkey, vero cells
Method: (§1) Cells (Vero E6) were used, with two modes of administration: either at the same time or 6 h before infection with SARS-CoV-2 (isolated early).
(§2) The readout for this test is CPE, so the infection will be stopped at 72 hpi (hours post-infection), and the compound will remain for the duration of the experiment. In parallel, the cytotoxicity of the same compound concentrations will be tested in the absence of viral infection.
(§3) The day before the experiment, the 8,000 cells/well are seeded in two 96-well plates (clear, Sarstedt), one for the antiviral study and one for the cytotoxicity study.
(§4) 134.4 μl of the 1 M composition is transferred to 1,465.6 μl of infection medium (=84 mM, twice the final maximum concentration).
(§5) Next, the cell support in the cytotoxicity plate is removed.
(§6) Immediately afterwards, 50 μl of undiluted infection medium is added to all the wells.
(§7) Next, 50 μl of infection medium without diluent is added to columns 4 to 6.
(§8) Next, the plate is incubated at 37 °C, 5% CO2 for 48 h.
(§9) After 72 h, when the CPE is evident, an MTT assay is performed for the antiviral and cytotoxicity plates.

Vero AD cells = test: as above; type: cell-based; conditions: 6 h pre-treatment
Method: as §1, §2, §3, §4, §5, §6, §7, §8, §9

[6] = test system: glycated hemoglobin (HbA1c); conditions: healthy person; cited from earlier work

## O=C[C@H](O)[C@@H](O)[C@H](O)CO [D-xylose]
HIV-1 NL4-3; read-out: % Infection, D-xylose 1.625 mM, replicate wells
  activity at 1625 µM: 20.8%
HIV-1 NL4-3; read-out: % Infection, D-xylose 3.250 mM, replicate wells
  activity at 3250 µM: 20.4%
HIV-1 NL4-3; read-out: % Infection, D-xylose 6.500 mM, replicate wells
  activity at 6500 µM: 18.1%
HIV-1 NL4-3; read-out: % Infection, D-xylose 13.000 mM, replicate wells
  activity at 13000 µM: 20.4%
HIV-1 NL4-3; read-out: % Infection, D-xylose 26.000 mM, replicate wells
  activity at 26000 µM: 20.6%
HIV-1 NL4-3; read-out: % Infection, D-xylose 52.000 mM, replicate wells
  activity at 52000 µM: 20.2%
HIV-1 NL4-3; read-out: % Infection, D-xylose 104.000 mM, replicate wells
  activity at 104000 µM: 14.9%
[1]
  viability at 48 h, 104000 µM: 20.8%
[2]
  solubility: 550 mg/mL (≈ 3660 mM)
[3]
  side effects: laxative effects in adults, diarrhea, nausea, and vomiting
[4]; Cytotoxicity percentage, D-xylose 3.25 mM
  cytotoxicity at 48 h, 3250 µM: 5.24%
[4]; Cytotoxicity percentage, D-xylose 26 mM
  cytotoxicity at 48 h, 26000 µM: 9.04%
[4]; Cytotoxicity percentage, D-xylose 52 mM
  cytotoxicity at 48 h, 52000 µM: 12.1%
[4]; Cytotoxicity percentage, D-xylose 104 mM
  cytotoxicity at 48 h, 104000 µM: 14.1%
[4]; Viability percentage, D-xylose 1.625 mM
  viability at 48 h, 1625 µM: 99.5%
[4]; Viability percentage, D-xylose 3.25 mM
  viability at 48 h, 3250 µM: 94.8%
[4]; Viability percentage, D-xylose 6.5 mM
  viability at 48 h, 6500 µM: 89.8%
[4]; Viability percentage, D-xylose 13 mM
  viability at 48 h, 13000 µM: 90.1%
[4]; Viability percentage, D-xylose 26 mM
  viability at 48 h, 26000 µM: 91%
[4]; Viability percentage, D-xylose 52 mM
  viability at 48 h, 52000 µM: 87.9%
[4]; Viability percentage, D-xylose 104 mM
  viability at 48 h, 104000 µM: 85.9%
HeLa TZMBL cells; 48 h, MTT
  median cytotoxic concentration (TC50): 260.3
HeLa TZMBL cells; D-xylose 1.625 mM
  Results for Cytotoxicity (MTT readout): 2.399 and 2.351 and 2.424
HeLa TZMBL cells; D-xylose 1.625 mM, 1625 µM
  Cytotoxicity percentage: 0.47% and 2.50% and −0.58%
  Viability percentage: 97.50% and 100.58%
HeLa TZMBL cells; D-xylose 3.25 mM
  Results for Cytotoxicity (MTT readout): 2.286 and 2.266 and 2.242
HeLa TZMBL cells; D-xylose 3.25 mM, 3250 µM
  Cytotoxicity percentage: 6.09% and 7.10%
  Viability percentage: 93.91% and 92.90%
HeLa TZMBL cells; D-xylose 6.5 mM
  Results for Cytotoxicity (MTT readout): 2.168 and 2.211 and 2.316
HeLa TZMBL cells; D-xylose 6.5 mM, 6500 µM
  Cytotoxicity percentage: 10.22% and 8.41% and 3.98%
  Viability percentage: 91.59% and 96.02%
HeLa TZMBL cells; D-xylose 13 mM
  Results for Cytotoxicity (MTT readout): 2.175 and 2.293 and 2.032
HeLa TZMBL cells; D-xylose 13 mM, 13000 µM
  Viability percentage: 95.05% and 84.04%
HeLa TZMBL cells; D-xylose 26 mM
  Results for Cytotoxicity (MTT readout): 2.196 and 2.137 and 2.158
HeLa TZMBL cells; D-xylose 26 mM, 26000 µM
  Cytotoxicity percentage: 11.53% and 10.64%
  Viability percentage: 88.47% and 89.36%
HeLa TZMBL cells; D-xylose 52 mM
  Results for Cytotoxicity (MTT readout): 2.123 and 2.266 and 2.199
HeLa TZMBL cells; D-xylose 52 mM, 52000 µM
  Cytotoxicity percentage: 6.09% and 8.91%
  Viability percentage: 93.91% and 91.09%
HeLa TZMBL cells; D-xylose 104 mM
  Results for Cytotoxicity (MTT readout): 2.075 and 2.027 and 2.064
HeLa TZMBL cells; D-xylose 104 mM, 104000 µM
  Cytotoxicity percentage: 16.17% and 14.61%
  Viability percentage: 83.83% and 85.39%
cells; in the presence of insulin
  xylose in cytosol at equilibrium: 80%
  xylose in plasma at equilibrium: 20%
cells; with insulin
  increase of penetration rate of D-xylose into the cells: two to five times
glycosaminoglycans
  stimulation of glycosaminoglycans: proven glycosaminoglycan stimulators of several cell types
SARS-CoV-2; 6 h pre-treatment, 0.328125 mM
  absorbance at 570 nm: 0.067 and 0.073 and 0.088
SARS-CoV-2; 6 h pre-treatment, 0.65625 mM
  absorbance at 570 nm: 0.08 and 0.081 and 0.085
SARS-CoV-2; 6 h pre-treatment, 0.65625 mM, 656.25 µM
  Viability percentage: −8.66% and −7.49% and −2.79%
SARS-CoV-2; 6 h pre-treatment, 1.3125 mM
  absorbance at 570 nm: 0.08 and 0.099 and 0.091
SARS-CoV-2; 6 h pre-treatment, 2.625 mM
  absorbance at 570 nm: 0.075 and 0.121 and 0.124
SARS-CoV-2; 6 h pre-treatment, 5.25 mM
  absorbance at 570 nm: 0.087 and 0.106 and 0.098
SARS-CoV-2; 6 h pre-treatment, 10.5 mM
  absorbance at 570 nm: 0.102 and 0.096
SARS-CoV-2; 6 h pre-treatment, 21 mM
  absorbance at 570 nm: 0.116 and 0.109 and 0.098
SARS-CoV-2; 6 h pre-treatment, 42 mM
  absorbance at 570 nm: 0.095 and 0.09 and 0.108
SARS-CoV-2; Severe acute respiratory syndrome coronavirus 2, Vero C1008, in Chlorocebus sabaeus, 72 h, read-out: Viability percentage, 6 h pre-treatment, 10.5 mM
  viability at 10500 µM: 17.2%
SARS-CoV-2; Severe acute respiratory syndrome coronavirus 2, Vero C1008, in Chlorocebus sabaeus, 72 h, read-out: Viability percentage, at time of infection, 0.65625 mM
  viability at 656.25 µM: 10.1%
SARS-CoV-2; Severe acute respiratory syndrome coronavirus 2, co-administration of D-xylose and SARS-CoV-2
  pIC50: 1.02
SARS-CoV-2; Severe acute respiratory syndrome coronavirus 2, pre-incubation of D-xylose 6 h prior to SARS-CoV-2 infection
  pIC50: 1.58
SARS-CoV-2; at time of infection, 0.328125 mM
  absorbance at 570 nm: 0.088 and 0.087
SARS-CoV-2; at time of infection, 0.328125 mM, 328.125 µM
  Viability percentage: 0.73% and −0.44%
SARS-CoV-2; at time of infection, 0.65625 mM
  absorbance at 570 nm: 0.096 and 0.099 and 0.101
SARS-CoV-2; at time of infection, 0.65625 mM, 656.25 µM
  Viability percentage: 13.66% and 16.01%
SARS-CoV-2; at time of infection, 1.3125 mM
  absorbance at 570 nm: 0.096 and 0.094 and 0.091
SARS-CoV-2; at time of infection, 1.3125 mM, 1312.5 µM
  Viability percentage: 7.78% and 4.26%
SARS-CoV-2; at time of infection, 2.625 mM
  absorbance at 570 nm: 0.141 and 0.113 and 0.103
SARS-CoV-2; at time of infection, 5.25 mM
  absorbance at 570 nm: 0.09 and 0.137 and 0.126
SARS-CoV-2; at time of infection, 10.5 mM
  absorbance at 570 nm: 0.109 and 0.131 and 0.107
SARS-CoV-2; at time of infection, 21 mM
  absorbance at 570 nm: 0.111 and 0.151 and 0.113
SARS-CoV-2; at time of infection, 42 mM
  absorbance at 570 nm: 0.059 and 0.095 and 0.09
[5]; 6 h pre-treatment, 0.328125 mM, read-out: Viability percentage
  viability at 328.125 µM: 130%
[5]; 6 h pre-treatment, 0.65625 mM, read-out: Viability percentage
  viability at 656.25 µM: 90.9%
[5]; 6 h pre-treatment, 1.3125 mM, read-out: Viability percentage
  viability at 1312.5 µM: 122%
[5]; 6 h pre-treatment, 2.625 mM, read-out: Viability percentage
  viability at 2625 µM: 108%
[5]; 6 h pre-treatment, 5.25 mM, read-out: Viability percentage
  viability at 5250 µM: 115%
[5]; 6 h pre-treatment, 10.5 mM, read-out: Viability percentage
  viability at 10500 µM: 109%
[5]; 6 h pre-treatment, 21 mM, read-out: Viability percentage
  viability at 21000 µM: 110%
[5]; 6 h pre-treatment, 42 mM, read-out: Viability percentage
  viability at 42000 µM: 108%
[5]; MTT, no virus
  CC50: > 42 mM
Vero AD cells; 0.328125 mM, 328.125 µM
  Viability percentage: 119.81%
Vero AD cells; 0.65625 mM, 656.25 µM
  Viability percentage: 100.84% and 108.33%
Vero AD cells; 1.3125 mM, 1312.5 µM
  Cytotoxicity percentage: −21.81% and −24.31% and −17.82%
  Viability percentage: 124.31% and 117.82%
Vero AD cells; 2.625 mM, 2625 µM
  Viability percentage: 118.32% and 114.82%
Vero AD cells; 5.25 mM, 5250 µM
  Cytotoxicity percentage: −15.32% and −18.81% and −10.83%
  Viability percentage: 118.81% and 110.83%
Vero AD cells; 10.5 mM, 10500 µM
  Cytotoxicity percentage: −9.33% and −10.83% and −6.33%
  Viability percentage: 110.83% and 106.33%
Vero AD cells; 21 mM, 21000 µM
  Cytotoxicity percentage: −9.83% and −10.33%
  Viability percentage: 110.33%
Vero AD cells; 42 mM, 42000 µM
  Cytotoxicity percentage: −7.83% and −9.83% and −3.34%
  Viability percentage: 103.34%
[6]
  effect on glycated hemoglobin (HbA1c) levels: little or no effect
